From patent publication US7666393B2, “Methods for assessing antiangiogenic agents” (Children's Medical Center Corporation, priority 2001, dated 2010)

Tests used:
[1] = system: CAM vascularization; settings: in vivo; cited from earlier work
[2] = system: EPC; test: VEGF-induced mobilization of EPC in mice (PBMNC colonies from peripheral blood); type: in vivo
Method: PBMNC from 1 ml of peripheral mouse blood were plated in medium containing bFGF and VEGF (FIG. 2A). […] Similar results were obtained with peripheral blood from mice, which were injected with microencapsulated cells producing endostatin (approximately 0.5×10^6 cells per mice) (Joki et al., 2001) (FIG. 2D). In order to elevate the number of EPC in the blood, the mice received injection of 0.5×10^6 cells producing VEGF, that were micro-encapsulated similar to the endostatin producing cells (FIGS. 2B-C).
PBMNC from VEGF injected mice were further analyzed by immunostaining in order to confirm their identity. Blood-derived cells were stained positively for VEGF-R2 (Flk-1), CD-31, BS-1 (a lectin specifically expressed on mouse EC) and for von-Wilerband factor (F.VIII). Only a few cells were stained positively for CD-14, a marker for macrophages. […] Furthermore, this in vivo effect of endostatin can be seen only if the starting number of EPC in the blood is high as a result of the VEGF treatment.

[3] = system: Human peripheral blood mononuclear cells (PBMNC); test: In vitro formation of colonies from human peripheral blood mononuclear cells (EPC differentiation assay); type: cell-based; settings: medium with bFGF and VEGF, 6 days culture after addition
Method: Human peripheral blood mononuclear cells (PBMNC) were purified over Ficoll gradient and seeded onto non-treated plastic dish for 24 hr. Non. adherent cells were, transferred to a gelatin coated 48 well dish in medium containing basic fibroblast growth factor (BFGF) and VEGF. Angiostatin and endostatin were added to the medium 24 hours later and cells were cultured for additional 6 days. At the end of the experiment the colonies were fixed with ethanol, stained with methyl-methylene blue and counted (FIGS. 1A-C). […] There was no difference in the effects of angiostatin between the two concentrations used. […] Taken together, it appears that angiostatin and endostatin block the differentiation of EC from their circulating progenitors.

[4] = system: EPC; test: EPC in peripheral blood of cancer patients undergoing endostatin treatment (P1H12-positive cells); type: in vivo, human; settings: for percentage of EPC: about 240 mg/m^3 daily
Method: Recombinant human Endostatin (rhEndostatin, Endostatin™ EntreMed, Inc, Rockville, Md.) is under investigation in clinical Phase I trials in patients with advanced, refractory cancers. Twenty eight patients, age ranging from 28 to 72 years old with various types of cancer such as breast, colorectal and soft tissue sarcoma, participated in a phase I clinical trial at the Dana Farber Cancer Institute in Boston. We obtained blood samples from 7 patients that were treated with endostatin. The response of EPC to rhEndostatin differed between patients in accordance with differing clinical courses. The first group consisted of 4 patients with slowly progressive, stable or decreasing cancers that were followed with samples for 130-250 days (FIG. 6A). The second group consisted of patients with faster progressing cancer unaffected by rhEndostatin administration. This group was followed during 30 days of endostatin treatment (FIG. 6B). PBMNC were purified from the blood over “Ficoll” gradient and cells corresponding to 0.5 or 1 ml of blood were placed in a “Cytospin” tube. The cells were loaded onto glass slides, fixed and immuno-stained with FITC-conjugated P1H12 antibodies. Cell nuclei were stained with DAPI. The number of P1H12-positive cells was calculated as percentage of total PBMNC. EPC percentage varied among patients and was between 1.8-3.5%. […] Patients from the first group were initially administered with daily intravenous injections of 60 mg/m^3 endostatin. […] The administration of endostatin was later changed to continuous infusion (60 mg/m^3/day).
The second group of patients were at the beginning of endostatin treatment (daily IVB injections of about to 240 mg/m^3). The initial amount of EPC in this group varied between 0.4-1.6%. […] In these patients only 2-3 measurements of EPC were available because of rapid disease progression. […] On the other hand, minor response or stable disease progression upon endostatin administration was associated with reduction in the number EPC in peripheral blood, whereas an increase in EPC was associated with rapid disease progression.

[5] = system: EPC; test: Tumor-induced mobilization of EPC in SCID mice bearing HS-VF tumors; type: in vivo; settings: 7 days
Method: Many tumors secrete high levels of VEGF that can promote differentiation and mobilization of EPC. To test the effects of endostatin on tumor-induced mobilization of EPC, SCID mice (5 per group) were first injected subcutaneously with human pancreatic tumor cells (HS-VF cell, 2×10^6 cells/mouse) overexpressing VEGF. Eight days later half of the mice were implanted with “Alzet” osmotic pumps releasing murine endostatin (8-12 mg/kg/day) and the other half with pumps releasing saline. SCID mice that were not injected with tumor cells or pumps (normal SCID mice) served as a control to measure the number of EPC. After seven days, mice were sacrificed and blood samples were collected.
PBMNC were purified over “Ficoll” gradient and cells corresponding to 0.5 ml of blood were placed in a “Cytospin” tube. The cells were loaded onto glass slides, fixed and immunostained with MECA-32 antibodies, that specifically detect murine EC. The staining was developed with FITC-labeled (green) secondary antibodies and cell nuclei were stained with DAPI (blue). The proportion of MECA-32 positive cells from total PBMNC was calculated and shown in the graph of FIG. 4A.
Control mice had 0.29% MECA-32 positive cells in the PBMNC preparation. […]

## CO[C@@H]1[C@H](OC(=O)NC(=O)CCl)CC[C@]2(CO2)[C@H]1[C@@]1(C)O[C@@H]1CC=C(C)C [TNP-470, reference compound]
[1]
  CAM vascularization: greatly inhibit

## vascular endothelial growth factor [VEGF, reference compound]
[2]; mice injected with 0.5×10^6 microencapsulated cells producing VEGF
  colonies from PBMNC of peripheral mouse blood: Large number of colonies

## endostatin
[3]; 2 μg/ml
  formation of PBMNC colonies: the number of colonies grew but the colonies were small and contained small round cells
[3]; 10 μg/ml
  formation of PBMNC colonies: significantly lower than the control experiment
[4]; one patient of the first group, continuous infusion 60 mg/m^3/day, 130 days
  number of EPC (P1H12-positive cells, percentage of total PBMNC): not increased
[4]; patient 13, faster progressing cancer, increased from 0.4% during 15 days of administration
  percentage of EPC: 3.8%
[4]; patient #11, faster progressing cancer, increased from 1.6% during 30 days of administration
  percentage of EPC: 5.3%
[4]; patient #12, faster progressing cancer, daily IVB injections of about 240 mg/m^3, first 15 days
  EPC percentage: did not change significantly
[4]; patients #1, #2 and #3, continuous infusion 60 mg/m^3/day
  number of EPC (P1H12-positive cells, percentage of total PBMNC): further lowered
[4]; patients #2 and #3, slowly progressing cancer, daily intravenous injections of 60 mg/m^3
  number of EPC (P1H12-positive cells, percentage of total PBMNC): gradually decreased
[2]; mice injected with microencapsulated cells producing endostatin only (approx. 0.5×10^6 cells per mouse), 7 days in culture
  colonies from PBMNC of 1 ml peripheral mouse blood: no viable cell-containing colonies could be detected
[2]; mice received VEGF producing cells together with endostatin producing cells (0.5×10^6 alginate encapsulated cells of each)
  colonies from PBMNC of peripheral mouse blood: only a few, small and round cell-containing colonies
[5]; Alzet pumps releasing murine endostatin 8-12 mg/kg/day, saline pumps approx. 2.5%, control mice 0.29%
  proportion of MECA-32 positive cells from total PBMNC: 0.67%
[5]; pumps releasing murine endostatin 8-12 mg/kg/day, saline 0.625+/−0.19%, normal mice 0.22+/−0.04%
  gated Flk-1 positive cells in the peripheral blood (FACS): 0.305+/−0.05%
[1]
  CAM vascularization: greatly inhibit

## angiostatin
[3]; 2 μg/ml
  formation of PBMNC colonies: completely blocked
[3]; 10 μg/ml
  formation of PBMNC colonies: completely blocked
[1]
  CAM vascularization: greatly inhibit
